Among the data in ChEMBL document CHEMBL5678818, “Discovery of potent SOS1 inhibitors that block RAS activation via disruption of the RAS-SOS1 interaction” (Proc Natl Acad Sci U S A, 2019) are Activity values, retold here.

For assay [1], the target named is 5'-AMP-activated protein kinase catalytic subunit alpha-1 (Homo sapiens) (UniProt Q13131). Description: Inhibition of AMPK-alpha1 (unknown origin) assessed as residual activity at 1000 nM by KINOMEscan analysis relative to control.
Assay [2] concerns the target T1, Testis-specific serine/threonine-protein kinase 1 (Homo sapiens) (UniProt Q9BXA7).
T1 sequence (whole entry): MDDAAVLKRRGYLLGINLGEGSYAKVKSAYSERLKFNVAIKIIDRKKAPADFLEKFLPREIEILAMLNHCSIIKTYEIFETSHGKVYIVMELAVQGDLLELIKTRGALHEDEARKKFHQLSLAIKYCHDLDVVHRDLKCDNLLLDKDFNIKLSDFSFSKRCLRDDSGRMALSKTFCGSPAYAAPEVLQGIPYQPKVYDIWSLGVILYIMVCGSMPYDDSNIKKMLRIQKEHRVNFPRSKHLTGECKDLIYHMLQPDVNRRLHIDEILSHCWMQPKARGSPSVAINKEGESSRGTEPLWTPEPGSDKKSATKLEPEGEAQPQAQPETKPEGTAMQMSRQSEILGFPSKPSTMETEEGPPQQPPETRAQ
Description: Inhibition of TSSK1B (unknown origin) assessed as residual activity at 1000 nM by KINOMEscan analysis relative to control.

Assay [3] deals with T2, Serine/threonine-protein kinase TBK1 (Homo sapiens) (UniProt Q9UHD2).
T2 sequence (whole entry): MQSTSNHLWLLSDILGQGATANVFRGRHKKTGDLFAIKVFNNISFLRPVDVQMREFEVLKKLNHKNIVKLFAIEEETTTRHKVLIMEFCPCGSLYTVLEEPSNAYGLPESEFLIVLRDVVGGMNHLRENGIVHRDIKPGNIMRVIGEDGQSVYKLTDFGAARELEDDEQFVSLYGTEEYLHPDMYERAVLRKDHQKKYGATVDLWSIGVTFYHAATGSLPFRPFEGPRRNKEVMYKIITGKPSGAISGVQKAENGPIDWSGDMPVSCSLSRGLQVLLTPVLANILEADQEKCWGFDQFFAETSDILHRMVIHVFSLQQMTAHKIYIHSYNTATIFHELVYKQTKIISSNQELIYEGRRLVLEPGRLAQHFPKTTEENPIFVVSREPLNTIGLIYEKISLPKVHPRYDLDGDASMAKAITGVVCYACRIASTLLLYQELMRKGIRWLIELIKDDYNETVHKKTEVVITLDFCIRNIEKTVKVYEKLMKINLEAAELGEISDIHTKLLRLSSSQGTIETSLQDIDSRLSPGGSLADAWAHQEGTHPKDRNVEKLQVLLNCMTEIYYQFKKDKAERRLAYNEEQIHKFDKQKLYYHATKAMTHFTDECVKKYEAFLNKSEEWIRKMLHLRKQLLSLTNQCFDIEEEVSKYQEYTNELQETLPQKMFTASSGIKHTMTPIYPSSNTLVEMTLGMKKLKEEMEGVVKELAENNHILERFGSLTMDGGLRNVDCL
Description: Inhibition of TBK1 (unknown origin) assessed as residual activity at 1000 nM by KINOMEscan analysis relative to control.

The target of assay [4] is T3, Cyclin-dependent kinase-like 2 (Homo sapiens) (UniProt Q92772).
T3 sequence (whole entry): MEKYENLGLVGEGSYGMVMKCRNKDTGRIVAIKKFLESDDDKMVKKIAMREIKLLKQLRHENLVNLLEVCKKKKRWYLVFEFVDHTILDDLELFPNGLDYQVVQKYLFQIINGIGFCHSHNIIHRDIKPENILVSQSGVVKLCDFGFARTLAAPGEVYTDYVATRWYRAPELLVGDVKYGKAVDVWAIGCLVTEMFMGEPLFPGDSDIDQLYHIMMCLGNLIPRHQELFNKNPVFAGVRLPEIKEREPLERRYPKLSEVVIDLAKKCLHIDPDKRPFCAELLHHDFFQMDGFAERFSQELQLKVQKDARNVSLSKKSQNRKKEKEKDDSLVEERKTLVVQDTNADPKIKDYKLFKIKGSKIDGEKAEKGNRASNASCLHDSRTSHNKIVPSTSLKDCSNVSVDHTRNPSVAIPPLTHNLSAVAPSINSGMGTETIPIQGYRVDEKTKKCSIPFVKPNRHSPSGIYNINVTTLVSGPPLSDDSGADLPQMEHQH
Description: Inhibition of CDKL2 (unknown origin) assessed as residual activity at 1000 nM by KINOMEscan analysis relative to control.

Assay [5] has as its target T4, Phosphatidylinositol 5-phosphate 4-kinase type-2 gamma (Homo sapiens) (UniProt Q8TBX8).
T4 sequence (whole entry): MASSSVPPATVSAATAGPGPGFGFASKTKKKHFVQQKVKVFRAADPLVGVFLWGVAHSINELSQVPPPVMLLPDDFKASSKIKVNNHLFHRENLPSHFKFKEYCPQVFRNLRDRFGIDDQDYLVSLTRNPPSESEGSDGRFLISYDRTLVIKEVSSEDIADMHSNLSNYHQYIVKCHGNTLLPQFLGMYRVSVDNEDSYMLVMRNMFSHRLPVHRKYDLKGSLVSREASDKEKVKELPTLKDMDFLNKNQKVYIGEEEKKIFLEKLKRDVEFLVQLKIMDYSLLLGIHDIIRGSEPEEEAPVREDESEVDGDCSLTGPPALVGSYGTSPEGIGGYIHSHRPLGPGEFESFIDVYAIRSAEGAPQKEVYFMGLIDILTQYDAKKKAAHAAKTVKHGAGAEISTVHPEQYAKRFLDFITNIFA
Put plainly: Inhibition of PIP5K2C (unknown origin) assessed as residual activity at 1000 nM by KINOMEscan analysis relative to control.

Assay [6] deals with Ribosomal protein S6 kinase alpha-1 (Homo sapiens) (UniProt Q15418). Description: Inhibition of C-terminal RSK1 kinetic domain 2 (unknown origin) assessed as residual activity at 1000 nM by KINOMEscan analysis relative to control.
Chain of Ribosomal protein S6 kinase alpha-1 (Homo sapiens) (Q15418 whole entry, the tested form may be a part): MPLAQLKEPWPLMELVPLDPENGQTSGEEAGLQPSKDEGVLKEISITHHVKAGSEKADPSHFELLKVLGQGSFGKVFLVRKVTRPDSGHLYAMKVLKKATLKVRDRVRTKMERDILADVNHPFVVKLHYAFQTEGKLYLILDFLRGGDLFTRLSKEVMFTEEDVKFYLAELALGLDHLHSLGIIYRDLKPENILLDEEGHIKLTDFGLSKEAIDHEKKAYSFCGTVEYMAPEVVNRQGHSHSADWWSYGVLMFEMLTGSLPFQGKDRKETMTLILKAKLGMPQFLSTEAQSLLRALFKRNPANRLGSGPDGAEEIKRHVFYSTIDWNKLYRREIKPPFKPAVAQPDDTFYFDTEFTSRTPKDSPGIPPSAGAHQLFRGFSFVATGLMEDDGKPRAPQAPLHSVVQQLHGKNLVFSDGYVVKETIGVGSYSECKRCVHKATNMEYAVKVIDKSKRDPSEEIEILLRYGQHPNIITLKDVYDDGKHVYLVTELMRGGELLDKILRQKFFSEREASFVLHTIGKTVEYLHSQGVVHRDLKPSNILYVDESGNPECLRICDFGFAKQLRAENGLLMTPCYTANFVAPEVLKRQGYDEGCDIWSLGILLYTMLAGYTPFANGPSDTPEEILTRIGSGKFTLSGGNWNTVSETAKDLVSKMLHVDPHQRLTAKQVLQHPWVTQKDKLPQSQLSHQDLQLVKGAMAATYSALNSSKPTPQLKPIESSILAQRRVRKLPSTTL
Assay [7] has as its target Cyclin-dependent kinase-like 1 (Homo sapiens) (UniProt Q00532). Put plainly: Inhibition of CDKL1 (unknown origin) assessed as residual activity at 1000 nM by KINOMEscan analysis relative to control.
Assay [8] addresses Mitogen-activated protein kinase 3 (Homo sapiens) (UniProt P27361). Put plainly: Inhibition of ERK1 (unknown origin) assessed as residual activity at 1000 nM by KINOMEscan analysis relative to control.
The target in assay [9] is Receptor-type tyrosine-protein kinase FLT3 (Homo sapiens) (UniProt P36888). Put plainly: Inhibition of autoinhibited FLT3 (unknown origin) assessed as residual activity at 1000 nM by KINOMEscan analysis relative to control.
Chain of Receptor-type tyrosine-protein kinase FLT3 (Homo sapiens) (P36888 whole entry): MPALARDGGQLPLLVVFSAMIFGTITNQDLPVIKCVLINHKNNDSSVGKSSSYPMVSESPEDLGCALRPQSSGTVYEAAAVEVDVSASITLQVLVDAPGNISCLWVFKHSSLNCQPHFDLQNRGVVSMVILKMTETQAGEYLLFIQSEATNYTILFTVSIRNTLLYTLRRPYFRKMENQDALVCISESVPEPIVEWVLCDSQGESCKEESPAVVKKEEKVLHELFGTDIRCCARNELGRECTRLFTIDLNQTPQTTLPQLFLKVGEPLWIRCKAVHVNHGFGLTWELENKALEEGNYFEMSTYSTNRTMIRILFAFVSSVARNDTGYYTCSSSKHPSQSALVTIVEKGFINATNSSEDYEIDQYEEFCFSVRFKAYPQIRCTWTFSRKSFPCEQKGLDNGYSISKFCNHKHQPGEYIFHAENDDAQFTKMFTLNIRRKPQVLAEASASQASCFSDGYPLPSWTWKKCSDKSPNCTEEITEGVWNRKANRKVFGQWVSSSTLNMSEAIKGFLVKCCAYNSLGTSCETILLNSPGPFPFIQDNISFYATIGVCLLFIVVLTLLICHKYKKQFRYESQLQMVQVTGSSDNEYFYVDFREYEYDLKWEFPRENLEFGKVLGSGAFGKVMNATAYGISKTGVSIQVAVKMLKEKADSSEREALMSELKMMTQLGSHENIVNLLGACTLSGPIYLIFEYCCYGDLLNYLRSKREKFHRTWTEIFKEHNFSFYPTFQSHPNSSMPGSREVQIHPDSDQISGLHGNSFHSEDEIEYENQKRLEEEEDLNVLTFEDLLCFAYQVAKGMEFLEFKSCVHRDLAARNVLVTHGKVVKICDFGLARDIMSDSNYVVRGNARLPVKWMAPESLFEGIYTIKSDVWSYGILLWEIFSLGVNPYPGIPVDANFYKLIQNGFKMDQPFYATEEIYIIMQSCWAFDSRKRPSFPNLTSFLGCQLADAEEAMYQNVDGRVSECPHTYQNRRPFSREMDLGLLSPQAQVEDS
Assay [10] deals with Serine/threonine-protein kinase RIO2 (Homo sapiens) (UniProt Q9BVS4). Description: Inhibition of RIOK2 (unknown origin) assessed as residual activity at 1000 nM by KINOMEscan analysis relative to control.
Chain of Serine/threonine-protein kinase RIO2 (Homo sapiens) (Q9BVS4 whole entry, looked up): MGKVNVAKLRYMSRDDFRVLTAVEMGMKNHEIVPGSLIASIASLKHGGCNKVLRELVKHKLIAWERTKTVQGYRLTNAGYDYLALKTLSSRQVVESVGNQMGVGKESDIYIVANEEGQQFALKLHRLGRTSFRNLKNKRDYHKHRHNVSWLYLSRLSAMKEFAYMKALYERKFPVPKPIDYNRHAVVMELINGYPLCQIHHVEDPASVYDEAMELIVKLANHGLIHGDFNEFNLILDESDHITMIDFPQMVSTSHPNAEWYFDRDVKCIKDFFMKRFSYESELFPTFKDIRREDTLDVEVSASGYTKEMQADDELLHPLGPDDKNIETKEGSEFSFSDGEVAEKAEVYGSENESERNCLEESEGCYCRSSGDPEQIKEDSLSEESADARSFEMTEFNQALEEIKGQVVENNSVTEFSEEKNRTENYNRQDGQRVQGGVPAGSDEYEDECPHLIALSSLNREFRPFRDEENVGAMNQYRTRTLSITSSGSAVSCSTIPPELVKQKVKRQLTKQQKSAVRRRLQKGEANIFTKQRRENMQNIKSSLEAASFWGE
The target in assay [11] is Platelet-derived growth factor receptor alpha (Homo sapiens) (UniProt P16234). Description: Inhibition of PDGFRA (unknown origin) assessed as residual activity at 1000 nM by KINOMEscan analysis relative to control.
Chain of Platelet-derived growth factor receptor alpha (Homo sapiens) (P16234 whole entry, the tested form may be a part): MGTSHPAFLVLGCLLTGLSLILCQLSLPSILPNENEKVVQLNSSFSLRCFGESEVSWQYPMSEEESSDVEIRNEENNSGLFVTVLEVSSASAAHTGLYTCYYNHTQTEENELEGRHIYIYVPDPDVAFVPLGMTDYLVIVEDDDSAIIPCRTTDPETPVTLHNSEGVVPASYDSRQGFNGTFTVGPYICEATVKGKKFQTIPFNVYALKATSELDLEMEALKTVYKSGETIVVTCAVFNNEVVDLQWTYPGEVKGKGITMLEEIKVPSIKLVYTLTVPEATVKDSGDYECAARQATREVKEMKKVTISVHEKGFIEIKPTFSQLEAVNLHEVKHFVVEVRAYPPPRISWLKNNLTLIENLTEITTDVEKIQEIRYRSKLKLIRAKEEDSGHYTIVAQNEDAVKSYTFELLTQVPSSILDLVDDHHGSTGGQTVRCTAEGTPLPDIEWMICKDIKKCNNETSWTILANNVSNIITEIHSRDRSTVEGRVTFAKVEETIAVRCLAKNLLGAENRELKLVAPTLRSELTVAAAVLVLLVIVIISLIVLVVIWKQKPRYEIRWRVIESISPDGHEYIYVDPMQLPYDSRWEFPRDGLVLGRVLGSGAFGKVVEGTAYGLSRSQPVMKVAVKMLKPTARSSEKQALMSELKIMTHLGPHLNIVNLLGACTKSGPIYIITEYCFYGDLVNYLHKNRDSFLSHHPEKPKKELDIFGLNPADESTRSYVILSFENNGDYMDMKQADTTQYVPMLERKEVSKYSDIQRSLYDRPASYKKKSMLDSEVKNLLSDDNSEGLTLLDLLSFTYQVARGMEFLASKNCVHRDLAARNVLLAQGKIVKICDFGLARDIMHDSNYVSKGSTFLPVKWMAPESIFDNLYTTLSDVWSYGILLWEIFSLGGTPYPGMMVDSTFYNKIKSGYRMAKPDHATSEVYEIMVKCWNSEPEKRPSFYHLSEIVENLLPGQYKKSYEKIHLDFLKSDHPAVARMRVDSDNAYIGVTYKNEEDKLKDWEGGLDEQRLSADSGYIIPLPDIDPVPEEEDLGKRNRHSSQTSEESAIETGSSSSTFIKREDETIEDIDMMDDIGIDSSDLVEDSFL
Assay [12] addresses Ribosomal protein S6 kinase alpha-5 (Homo sapiens) (UniProt O75582). Description: Inhibition of N-terminal RPS6KA5 kinetic domain 1 (unknown origin) assessed as residual activity at 1000 nM by KINOMEscan analysis relative to control.

Chain of Mitogen-activated protein kinase 3 (Homo sapiens) (P27361 whole entry): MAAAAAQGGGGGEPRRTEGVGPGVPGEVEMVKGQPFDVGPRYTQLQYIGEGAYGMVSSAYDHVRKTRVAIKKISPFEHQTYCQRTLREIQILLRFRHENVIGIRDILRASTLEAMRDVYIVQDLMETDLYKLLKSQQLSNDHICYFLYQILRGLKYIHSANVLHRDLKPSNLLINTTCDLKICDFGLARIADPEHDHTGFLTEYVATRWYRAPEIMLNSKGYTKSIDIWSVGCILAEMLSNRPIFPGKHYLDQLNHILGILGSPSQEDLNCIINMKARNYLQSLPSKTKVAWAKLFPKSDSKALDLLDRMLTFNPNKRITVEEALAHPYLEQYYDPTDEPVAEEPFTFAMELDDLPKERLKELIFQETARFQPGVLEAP
Chain of Cyclin-dependent kinase-like 1 (Homo sapiens) (Q00532 whole entry): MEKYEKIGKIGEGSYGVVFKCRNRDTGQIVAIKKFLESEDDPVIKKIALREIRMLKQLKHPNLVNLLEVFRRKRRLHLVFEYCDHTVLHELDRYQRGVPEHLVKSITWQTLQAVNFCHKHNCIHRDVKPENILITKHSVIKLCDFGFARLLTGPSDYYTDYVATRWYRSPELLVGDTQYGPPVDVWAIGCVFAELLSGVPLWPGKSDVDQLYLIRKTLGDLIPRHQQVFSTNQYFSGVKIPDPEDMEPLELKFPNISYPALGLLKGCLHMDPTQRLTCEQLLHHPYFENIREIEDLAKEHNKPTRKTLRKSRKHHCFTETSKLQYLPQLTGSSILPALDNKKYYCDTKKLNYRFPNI
Chain of Ribosomal protein S6 kinase alpha-5 (Homo sapiens) (O75582 whole entry, looked up, the tested form may be a part): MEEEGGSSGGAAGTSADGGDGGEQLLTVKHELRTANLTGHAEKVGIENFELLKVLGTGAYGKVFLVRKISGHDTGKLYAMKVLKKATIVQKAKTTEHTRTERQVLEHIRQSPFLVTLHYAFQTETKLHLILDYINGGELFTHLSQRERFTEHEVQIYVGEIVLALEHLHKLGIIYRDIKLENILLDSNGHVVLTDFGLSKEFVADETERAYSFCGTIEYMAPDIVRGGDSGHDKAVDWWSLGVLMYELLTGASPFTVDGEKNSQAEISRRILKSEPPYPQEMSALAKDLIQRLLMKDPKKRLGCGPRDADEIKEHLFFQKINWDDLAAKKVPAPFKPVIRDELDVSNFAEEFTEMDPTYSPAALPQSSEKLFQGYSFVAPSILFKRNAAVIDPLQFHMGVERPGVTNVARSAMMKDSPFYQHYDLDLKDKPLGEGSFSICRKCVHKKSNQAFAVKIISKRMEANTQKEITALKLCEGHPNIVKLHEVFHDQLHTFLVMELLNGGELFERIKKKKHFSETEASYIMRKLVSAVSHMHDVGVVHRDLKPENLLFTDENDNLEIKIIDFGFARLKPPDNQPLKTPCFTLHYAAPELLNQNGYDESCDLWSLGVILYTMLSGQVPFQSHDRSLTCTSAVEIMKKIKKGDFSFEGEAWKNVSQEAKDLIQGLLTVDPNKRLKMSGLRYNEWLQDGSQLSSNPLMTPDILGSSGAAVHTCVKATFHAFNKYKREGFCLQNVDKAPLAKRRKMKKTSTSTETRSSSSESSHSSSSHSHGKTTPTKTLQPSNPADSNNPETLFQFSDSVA

Regarding `COc1cc2nc(C)nc(N[C@H](C)c3cccc(-c4cn[nH]c4)c3)c2cc1OC`, the Activity came to 82% in [1]; 98% in assay [2]; 66% in assay [3]; 81% in assay [4]; 69% in assay [5]; 99% in [6]. Besides, the Activity was 73% in [7]; 100% in [8]; 100% in assay [9]; 61% in assay [10]; 100% in [11]; 92% in assay [12].
Take `COc1cc2ncnc(N[C@H](C)c3cccc4ccccc34)c2cc1OC`: the Activity amounted to 100% in [1]; 100% in assay [2]; 100% in [3]; 97% in assay [4]; 80% in [5]; 100% in assay [6]. Moreover, the Activity came out at 89% in [7]; 100% in [8]; 87% in assay [9]; 82% in assay [10]; 100% in [11]; 99% in assay [12].
